Patent publication US6552066B1, “Protein tyrosine kinase inhibitors for treating osteoarthritis” (priority 1995, dated 2003)

Tests used:
prostromelysin protein = test: Western immunoblot of IL-1-induced prostromelysin protein in primary bovine chondrocytes; format: cell-based; details: for effect on IL-1α-induced prostromelysin protein levels: repeat experiment; for effect on IL-1-induced prostromelysin levels: first experiment
Method: Isolation and culturing of primary bovine articular chondrocytes, as well as addition of inhibitors were performed as indicated above in Example 4. The following protein kinase inhibitors were tested: 1) Protein kinase A (PKA) inhibitors; 0.5 μM H88 (Seikagaku Corp.), 0.5 μM H89 (Seikagaku Corp.), 2) Protein kinase C (PKC) inhibitors; 0.5 μM Calphostin C (Calbiochem), 1.0 μM Chelerythrine (Calbiochem); 3) CA^2+/Calmodulin Kinase II inhibitor; 5.0 μM KN93 (Seikagaku Corp.); 4) Protein tyrosine kinase (PTK) inhibitors; 50 μM Genistein (Calbiochem), 10 μM Herbimycin A (Calbiochem).
After the 24 hour IL-1α incubation, the media of each sample was measured and collected on ice in the presence of the protease inhibitors EGTA (5 mM), Pefabloc (1 mM), pepstatin (1 μg/ml), and NEM (5 mM). Media were concentrated approximately 40 fold using a Centriprep-10 ultrafiltration device (Amicon). Concentrated samples were normalized to equivalent starting concentrations (cell number/culture volume), were reduced in the presence of SDS Laemmli sample buffer and electrophoresed in a precast 12% polyacrylamide gel (BioRad). Protein samples were then electroblotted to nitrocellulose and immunodetected using a primary antibody that recognizes both prostromelysin and stromelysin. Immunoreactive bands were visualized with the ABC detection (Pierce) and an NBT/BCIP color reagent (Sigma).
A repeat of the Western immunoblotting experiment using antistromelysin antibodies was performed. Furthermore, additional inhibitors from four enzyme families were examined: 1) Protein tyrosine kinase (PTK) inhibitors: 1 μM Tyrphostin AG 1296 (Calbiochem), 50 μM Tyrphostin A25 (AG 82) (Calbiochem), 50 μM Tyrphostin AG 126 (Calbiochem); 2) Guanylate cyclase inhibitor; 10 μM LY-83583 (Calbiochem); 3) Casein kinase I inhibitor; 20 μM CKI-7 (Seikagaku Corp.); and 4) Protein kinase G (PKG) and PKA inhibitor; 5.0 μM H89.

stromelysin mRNA = test: Northern blot of IL-1-induced stromelysin mRNA in primary bovine chondrocytes; format: cell-based; details: 2 h preincubation, IL-1α 1 ng/ml 24 hours
Method: The isolation of cartilage and the enzymatic degradation of cartilage was carried out as described in Example 1.
Chondrocytes were recovered by addition of an equal volume of DMEM/F12 supplemented with 10% fetal bovine serum (FBS) to neutralize enzymes, filtration through a 70μm nylon Cell Strainer (Falcon), and centrifugation at 1000×g for ten minutes at room temperature. Chondrocytes were seeded in T-150 plates at 5×10^4 cells/cm^2 using 1:1 DMEM/F12, 10% FBS, 1% antibiotic solution (penicillin, streptomycin, fungizone: GIBCO/BRL), and incubated at 37° C., 5% CO2. Cells were refed with DMEM/F12 plus 10% FBS on days 4, 7, and 10. On day 11, test cultures (except for the+interleukin 1α control) were rinsed in phosphate buffered saline (PBS), and preincubated for 2 hours with 5 ml of serum-free DMEM/F12 containing one of the following protein kinase inhibitors:
1) Protein kinase A (PKA) inhibitors; 0.5 μM H88 (Seikagaku Corp.), 0.5 μMH89 (Seikagaku Corp.); 2) Protein kinase G (PKG) and PKA inhibitor; 5.0 μM H89; 3) Protein kinase C. (PKC) inhibitors; 0.5 μM Calphostin C (Calbiochem), 1.0 μM chelerythrine (Calbiochem); 4) CA^2+/Calmodulin Kinase II inhibitor; 5.0 μM KN93 (Seikagaku Corp.); 5) Protein tyrosine kinase (PTK) inhibitors; 50 μM Genistein (Calbiochem), 10 μM Herbimycin A (Calbiochem), 50 μM Tyrphostin A25 (AG 82) (Calbiochem), 50 μm Tyrphostin AG 126 (Calbiochem), 50 μM Tyrphostin B56 (AG 556) (Calbiochem), 20 μM DAPH (Calbiochem).
Recombinant human interleukin 1 α (IL-1α) (R & D Systems) at 1 ng/ml was then added to all cultures (except the IL-1α control) for 24 hours in serum-free DMEM/F12 containing 1% antibiotic solution.
RNA on the Northern blot was fixed to the membrane by baking at 80° C. for 30 minutes.
Prehybridization (1.5 hours) and hybridization (overnight) of the Northern blot with the radioactive probes were performed in 50% formamide, 1×GIBCO/BRL hybridization solution, 0.1% SDS, and 10mM monobasic sodium phosphate, at 42° C. The blot was successively washed two times in 1×SSC/0.1% SDS (15 minutes/wash at room temperature), and two times in 0.2×SSC/0.1% SDS (30 minutes/wash at 55° C.). The blot was allowed to air dry, and was exposed to X-ray film, with intensifying screen, overnight at −70° C.

[1] = concentration not printed in Example 5

SMILES: N#C/C(=C\c1ccc(O)c(O)c1)C(=O)NCCCCc1ccccc1 [Tyrphostin AG 556]
- effect on IL-1α-induced prostromelysin protein levels (prostromelysin protein; [1]): dramatic reduction
- inhibition of IL-1-induced upregulation of stromelysin mRNA levels (stromelysin mRNA; 50 μM): Total inhibition

SMILES: N#CC(C#N)=Cc1ccc([N+](=O)[O-])c(O)c1 [Tyrphostin AG 126]
- effect on IL-1α-induced prostromelysin protein levels (prostromelysin protein; 50 μM): no effect
- inhibition of IL-1-induced upregulation of stromelysin mRNA levels (stromelysin mRNA; 50 μM): no effect

SMILES: N#CC(C#N)=Cc1cc(O)c(O)c(O)c1 [Tyrphostin AG 82]
- effect on IL-1α-induced prostromelysin protein levels (prostromelysin protein; 50 μM): slight inhibitory activity
- inhibition of IL-1-induced upregulation of stromelysin mRNA levels (stromelysin mRNA; 50 μM): no effect

SMILES: CO[C@H]1[C@@H](OC)C[C@H](C)[C@@H](OC)C2=CC(=O)C=C(NC(=O)/C(C)=C/C=C\[C@H](OC)[C@@H](OC(N)=O)/C(C)=C/[C@@H]1C)C2=O [Herbimycin A]
- effect on IL-1-induced prostromelysin levels (prostromelysin protein; 10 μM): completely inhibited
- effect on IL-1α-induced prostromelysin protein levels (prostromelysin protein; 10 μM): dramatic reduction
- inhibition of IL-1-induced upregulation of stromelysin mRNA levels (stromelysin mRNA; 10 μM): Total inhibition

SMILES: O=C1NC(=O)c2cc(Nc3ccccc3)c(Nc3ccccc3)cc21 [DAPH, 4,5-dianilinophthalimide]
- effect on IL-1α-induced prostromelysin protein levels (prostromelysin protein; [1]): dramatic reduction
- inhibition of IL-1-induced upregulation of stromelysin mRNA levels (stromelysin mRNA; 20 μM): Total inhibition

SMILES: O=c1c(-c2ccc(O)cc2)coc2cc(O)cc(O)c12 [Genistein]
- effect on IL-1-induced prostromelysin levels (prostromelysin protein; 50 μM): completely inhibited
- effect on IL-1α-induced prostromelysin protein levels (prostromelysin protein; 50 μM): dramatic reduction
- inhibition of IL-1-induced upregulation of stromelysin mRNA levels (stromelysin mRNA; 50 μM): Total inhibition
